Assay results reported in patent US9388139B2, “Derivatives of celeboxib, use thereof and preparation thereof” (German University, priority 2011, dated 2016).

What was measured:
Assay type in all cases: cell-based
[1] = tested on: MDA-MB-435; test: Tumor cell growth inhibition panel; conditions: Homo sapiens, Melanoma
Procedure: (§1) Thus, compound 12 is able to show broad spectrum tumor cell growth inhibitory activity independent of cyclooxygenase inhibition, whereas PDE5 may be the major contributor to such activity.
(§2) The human tumor cell lines were purchased from the American Type Culture Collection (Mansassas, Va.) and maintained in RPMI-1640+2.0 g/L glucose pH 7.4+5% FBS+4 mM glutamine (complete growth medium), incubated at 37° C. in 5% CO2, and passaged at subconfluent density. The human fetal colon FHC cells were cultured in DMEM:F12 medium supplemented with 10% FBS, cholera toxin (10 ng/mL), 5 μg/ml transferrin, 5 μg/ml insulin, and 100 ng/ml hydrocortisone. The passage number was routinely limited to approximately 20 and morphology monitored with each passage, but no additional authentication of the cell lines was performed.
(§3) Cells were plated in 96-well microtiter plates at a density of 5,000 cells per well and allowed to adhere overnight prior to treatment. Cells were treated with a 2-log concentration range of either SS or SBA and incubated for an additional 72 hours. For siRNA assays, cells were transfected in OptiMEM media with 0.5% SureFECT transfection reagent and 200 nmol/L of either negative control or PDE5 siRNA and incubated at 37° C. for 24 h prior to treatment. At the end of the incubation period, relative cell viability was compared to vehicle controls using the Cell Titer Glo Assay (Promega, Madison Wis.), which measures viable cells based on ATP content, according to the manufacturer's specifications.

[2] = tested on: MDA-MB-468; test: Tumor cell growth inhibition panel; conditions: Homo sapiens, Breast
Procedure: as §1, §2, §3

[3] = tested on: NCI-H23; test: Tumor cell growth inhibition panel; conditions: Homo sapiens, Lung
Procedure: as §1, §2, §3

[4] = tested on: OVCAR-4; test: Tumor cell growth inhibition panel; conditions: Homo sapiens, Ovarian
Procedure: as §1, §2, §3

[5] = tested on: human tumor cell lines of different origins; test: Tumor cell growth inhibition panel, overall; conditions: in words; including the adriamycin resistant cell line ADR/NCl-RES
Procedure: as §1, §2
Cells were plated in 96-well microtiter plates at a density of 5,000 cells per well and allowed to adhere overnight prior to treatment. Cells were treated with a 2-log concentration range of either SS or SBA and incubated for an additional 72 hours. For siRNA assays, cells were transfected in OptiMEM media with 0.5% SureFECT transfection reagent and 200 nmol/L of either negative control or PDE5 siRNA and incubated at 37° C. for 24 h prior to treatment. […]

Structure (SMILES): CC(C)(C)C1=NN(c2ccc(C(=O)O)cc2)C(c2ccc(Cl)cc2Cl)C1 (centres unmarked) [Compound 12, 4-(3-(tert-Butyl)-5-(2,4-dichlorophenyl)-4,5-dihydro-1H-pyrazol-1-yl)benzoic acid]
- IC50 [1]: 50.8 µM
- IC50 [2]: 58.5 µM
- IC50 [3]: 40.6 µM
- IC50 [4]: 54.9 µM
- tumor cell growth inhibitory activity [5]: broad spectrum growth inhibitory activity
